Laboratory results as given in patent publication US5641792A, “Benzoylguanidines substituted by heterocyclic N-oxide, process for their preparation and pharmaceutical compositions containing them” (priority 1994, dated 1997).
Where a name gives a salt, the structure may show the parent alone.

Experiments:
[1] = target: T1, Na^+ /H^+ exchanger of rabbit erythrocytes (Oryctolagus cuniculus, UniProt P23791); test: Inhibition of the Na^+ /H^+ Exchanger of Rabbit Erythrocytes (amiloride-sensitive Na^+ influx, flame photometry); format: cell-based, rabbit (White New Zealand); conditions: cholesterol-fed rabbits, pH 7.4, 37° C.
T1 construct: determine the Na^+ influx into the erythrocytes via Na^+ /H^+ exchange by flame photometry; endogenous in cells; host or cells: erythrocytes in blood from the ear arteries of cholesterol-fed White New Zealand rabbits (Ivanovas)
T1 sequence (P23791 whole entry): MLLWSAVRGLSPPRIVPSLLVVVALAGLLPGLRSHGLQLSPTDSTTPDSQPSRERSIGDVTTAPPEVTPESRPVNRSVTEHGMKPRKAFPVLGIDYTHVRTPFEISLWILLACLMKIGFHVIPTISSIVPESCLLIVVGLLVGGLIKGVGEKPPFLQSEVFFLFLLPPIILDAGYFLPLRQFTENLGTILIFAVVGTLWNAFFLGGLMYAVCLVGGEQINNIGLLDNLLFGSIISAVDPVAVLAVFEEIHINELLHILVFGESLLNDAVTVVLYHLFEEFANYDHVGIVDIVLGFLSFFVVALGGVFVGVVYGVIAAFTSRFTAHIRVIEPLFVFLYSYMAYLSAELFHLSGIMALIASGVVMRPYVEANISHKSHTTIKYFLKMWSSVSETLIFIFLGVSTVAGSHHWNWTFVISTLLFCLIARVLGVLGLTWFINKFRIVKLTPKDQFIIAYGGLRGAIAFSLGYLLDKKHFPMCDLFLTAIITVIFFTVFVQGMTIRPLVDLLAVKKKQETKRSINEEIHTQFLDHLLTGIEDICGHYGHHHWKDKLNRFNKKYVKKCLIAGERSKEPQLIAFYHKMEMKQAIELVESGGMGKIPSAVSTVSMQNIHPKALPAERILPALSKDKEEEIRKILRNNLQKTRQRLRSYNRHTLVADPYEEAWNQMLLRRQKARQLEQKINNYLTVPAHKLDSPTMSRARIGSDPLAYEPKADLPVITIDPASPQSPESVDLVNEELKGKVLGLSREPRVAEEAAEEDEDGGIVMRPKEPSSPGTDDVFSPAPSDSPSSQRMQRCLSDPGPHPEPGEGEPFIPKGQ
From the text: Inhibition of the Na^+ /H^+ Exchanger of Rabbit Erythrocytes
White New Zealand rabbits (Ivanovas) were given a standard diet with 2% of cholesterol for six weeks in order to activate the Na^+ /H^+ exchange and in this way to be able to determine the Na^+ influx into the erythrocytes via Na^+ /H^+ exchange by flame photometry. The blood was removed from the ear arteries and rendered noncoagulable by 25 IU of potassium-heparin. A portion of each sample was used for duplicate determination of the hematocrit by centrifugation. Aliquots of in each case 100 μl were used for measurement of the starting Na^+ content of the erythrocytes.
To determine the amiloride-sensitive sodium influx, 100 μl of each blood sample were incubated in 5 ml portions each of a hyperosmolar salt/sucrose medium (mmol/l: 140 NaCl, 3 KCl, 150 sucrose, 0.1 ouabain, 20 tris-hydroxymethylaminomethane) at pH 7.4 and 37° C. The erythrocytes were then washed three times with ice-cold MgCl2 /ouabain solution (mmol/l: 112 MgCl2, 0.1 ouabain) and hemolyzed in 2.0 ml of distilled water. The intracellular sodium content was determined by flame photometry.
The Na^+ net influx was calculated from the difference between the starting sodium values and the sodium content of the erythrocytes after incubation. The sodium influx which can be inhibited by amiloride resulted from the difference between the sodium content of the erythrocytes after incubation with and without 3×10^-4 mol/l of amiloride. This procedure was also followed with compounds according to the invention.

[2] = cited from earlier work
rat hearts = conditions: isolated rat hearts, cited from earlier work

Structure (SMILES): NC(N)=NC(=O)c1ccc(Oc2ccc[n+]([O-])c2)c(C(F)(F)F)c1 [Example 1, 4-(pyridine N-oxide-3-yloxy)-3-trifluoromethyl-benzoylguanidine, hydrochloride]
- IC50 [1]: 80 nM

Structure (SMILES): Cc1ccc2cc(Oc3ccc(C(=O)N=C(N)N)cc3S(C)(=O)=O)ccc2[n+]1[O-] [Example 2, 4-(quinaldine N-oxide-6-yloxy)-3-methylsulfonyl-benzoylguanidine, hydrochloride]
- IC50 [1]: 300 nM

Structure (SMILES): Cc1ccc2cc(Oc3ccc(C(=O)N=C(N)N)cc3C(F)(F)F)ccc2[n+]1[O-] [Example 3, 4-(quinaldine N-oxide-6-yloxy)-3-trifluoromethyl-benzoylguanidine, hydrochloride]
- IC50 [1]: 19 nM

Structure (SMILES): NC(N)=NC(=O)c1nc(Cl)c(N)nc1N [amiloride, Amiloride]
- antiarrhythmic effect ([2]; Circulation 79, 1257-63 (1989)): only weak
- accompanying action (side-effects) ([2]; accompanies the antiarrhythmic effect): antihypertensive and saluretic action
- suppression of artificially induced ventricular fibrillation (rat hearts; Eur. Heart J. 9 (suppl. 1): 167 (1988)): suppressed completely

Structure (SMILES): CCN(c1nc(N)c(C(=O)NC(=N)N)nc1Cl)C(C)C [ethylisopropylamiloride]
- potency relative to amiloride in this model (ventricular fibrillation) (rat hearts; compared with amiloride): even more potent than amiloride
